Where a SMILES comes first, the peptide text is derived from it. The star is where a group is joined. NHC(CH2OLauroyl)3 = CCCCCCCCCCCC(=O)OCC(COC(=O)CCCCCCCCCCC)(COC(=O)CCCCCCCCCCC)N*; X4 = CCCCCCCCCCCC(=O)OCC(CO)(COC(=O)CCCCCCCCCCC)N*
Legend:
[1] = tested on: Cos 1 cells; format: cell-based, African Green Monkey
Description: Relative levels of cytotoxicity caused by the different agents were compared during the experiment using the dye "Alamar Blue" (Alamar, Sacramento Calif.).
(§1) For experiment "c", a plasmid pPGKlaczNLS encoding β-galactosidase under the control of the mouse PGK promoter (kind gift from G.Hannan) or pSVGAL which utilises the SV40 early promoter (Sleigh, M. J. and Lockett, T. J. (1985). EMBO J. 4:3831-3837),was transfected. This experiment and assay were modified from Feigner et al J. Biol Chem. 269(4) 2550-2561 1994. This protocol allows the simultaneous assessment of 72 different combinations and concentrations of DNA and test agent in a microtitre tray. […] Cytotoxicity was assessed using alamar blue, and a sample graph is shown for experiment a.
(§2) The ratio of [lipid]/[DNA] at which that maximum was achieved is shown. Experiments shown were carried out in Cos 1 cells, as described above. MTS OD is a measure of relative viabilility of the cells exposed to the different agents, a higher value indicates greater cell viability. * These points were taken from a separate experiment and some slight variation between absolute numbers should be expected between experiments.
(§3) The ratio of [lipid]/[DNA] at which that maximum was achieved is shown in brackets for the two different cell types in the following order; (Cos 1) (CHO). Experiments shown were carried out in Cos 1 cells, as described above. Viability was measured with the dye alamar blue . # Denotes compounds tested in a separate experiment. * Viability in this experiment was determined with MTS. OD is a measure of relative viability of the cells exposed to the different agents, and as with alamar blue, a higher value indicates greater cell viability.

[2] = tested on: cells; assay: β-gal reporter transfection, "y" linker non-standard amino acids; format: cell-based; details: K3 "y" TL3 compounds
Protocol: Peptide/fatty acyl conjugates were synthesized using the non-standard amino acids amino butyric (C3), amino caproic (C5) and amino caprylic (C7) acids as the linker groups, a tri-lysine nucleic acid binding domain and laurate for the three fatty acyl groups. In these new conjugates the DNA binding and tris/fatty acyl moieties were separated by an extra 3, 5 and 7 carbon bond lengths respectively when compared with the prototype molecule. These compounds were then tested in the standard manner described above to determine their relative capacity to transfect cells.
K3 "y" TL3 compounds, where y=C3, C5, C7, A, L, G were compared for transfection efficiency to each other and the commercial agent Lipofectamine using the standard β-gal reporter gene system described above.

[3] = tested on: Cos 1 cells; assay: Transfection of pSVLCAT, CAT assay, Cos 1; format: cell-based, African Green Monkey
Protocol: To test the transfection properties of the lead compound K3ATP3 (VerafectinA3), whole uncut plasmid carrying the gene encoding CAT (chloramphenicol acetyl transferase) under the control of the SV40 late promoter, pSVLCAT (Cameron, F. H. and Jennings, P. A. (1989) PNAS 86, 9139-9143) was mixed with the test agent and put on Cos 1 cells under various conditions. After 48 hours of culture the level of secreted CAT was assayed from the culture medium.
Solution I: 1 μg Plasmid DNA in 500 μl Dulbeccos Modified Eagles Medium (DME)
Solution II: 0-20 μl VerafectinA3 (2.5 mg/ml 25% DMSO) in 500 μl DME, Vortex
Combine solution I and II, vortex briefly and incubate at room temperature for 10 min.
Add mix to washed cells in 60 mm tissue culture dishes (seeded 0.5×10^6 /dish previous day) for 6 hrs at 37° C., 5% C02. Add 2 ml DME+10% FCS for remainder of 48 hrs. Assay CAT levels in tissue culture medium (Sleigh, M. J. (1986) Anal. Biochem. 156.251-256).
a--Compare VerafectinA3 dissolved in DMSO or ethanol.
b--Compare VerafectinA3 on cells 6 hrs to overnight. VerafectinA3 at 10 mg/ml in 100% solvent was diluted to 2.5 mg/ml with water.
Transfection was carried out as for experiment 1. VerafectinA3 was left in contact with the cells for varying times.
Protocol was the same for the Verafectins as described above. Lipofectamine protocol was according to manufacturers instructions. Cos 1 cells were seeded at 5×10^5 /60 mm dish and adhered overnight in DME with 10% FCS.
Solution A: 0.5 μg pSVLCAT/60 mm dish.
Solution B: Lipofectamine 10 and 15 μl 2 mg/ml (mixed formulation 3:1 with DOPE).
OR; VerafectinA3 and VerafectinG2 20 μl 2 mM (2.8 and 2.3 mg/ml respectively) stock.
OR; VerafectinG2 was also tested with an equimolar amount of DOPE. VerafectinG2 and DOPE were mixed in DDME and vortexed for 30 seconds before use. Solutions A and B were combined before overlaying on washed cells.
The serum free incubation period in the presence of test agents and DNA was 6 hrs, then 1 ml DME+10% FCS was added. At 24 hours medium was changed to 2 ml fresh DME+10% FCS until harvest at 48 hrs.
Cell lines Cos 1 or CHO were transfected with 0.5 μg of pSVLCAT or 2 μg of pPGKlacZ plasmid using a range of concentrations of each transfection compound. The optimal concentration of compound, that is the concentration giving the highest level of CAT at 48 hours or the greatest percentage of lac z (β-galactosidase) staining cells at 24 hours was used to collate data for Table 1. As all compounds were not tested in a single experiment, absolute figures indicating transfection were not used. Rather, symbols are used to indicate the transfection efficiency relative to Lipofectamine (BRL), which was included as a control in all experiments. Table 1 thus indicates the relative efficiencies of a number of compounds in mediating the transfection of at least one cell type.
All test lipopeptide reagents were originally dissolved at 10 mM in 75% DMSO, and subsequently diluted with water to make a 2 mM stock stored at 4° C. Volumes of 2 mM stock lipopeptide ranging from 2 μl to 15 μl were diluted in 500 μl of DDME. 1 μg of plasmid pSVLCAT was separately diluted in 500 μl of DDME. Solutions were combined for 10-20 min at room temperature before adding to 500 μl of DDME in 60 mm dishes of subconfluent CHO cells (2×10^5 day-1) or Cos 1 cells (5×10^5 day-1); washed free of serum with DDME.
Cells were incubated for 6 hrs under standard conditions of 37° C. and 5% CO2 for 6 hours. 1.5 ml of DME/Hams+10% FCS (CHO) or DME+10% FCS (Cos 1) was added to the cells for overnight incubation. Fresh DME/Hams+10% FCS or DME+10% FCS was used to replace the medium for a further 24 hours prior to harvest. Cell lysates were prepared and assayed for CAT activity as described above. For Cos 1 cells, culture supernatants were assayed for CAT activity.
For transfection of pSVLCAT and subsequent assay of CAT enzyme, experiments "a" and "b" were carried out as described above.

[4] = tested on: Cos 1 cells; assay: Cellular uptake and distribution of fluorescein conjugates (confocal microscopy); format: cell-based, African Green Monkey; details: for cell staining after treatment: cells fixed fifteen minutes after treatment; for persistence of staining: conjugate washed off after 2 hours, cells grown 24 hours; for distribution in live, unfixed cells: 40× objective
Protocol: In order to assess the ability to deliver compounds into cells, preliminary experiments were conducted with fluorescein alanine ethanolamine palmitate (FLAEP) and fluorescein alanine tris tripalmitate (FLATP3).
After the incubation period as specified in the experiment, up to 24 hours exposure, the cells were washed and fixed in formaldehyde for 20 minutes. Cells were then observed under laser excitation in a Bio Rad MRC 500 confocal microscope.

[5] = tested on: Cos 1 cells; assay: β-gal microtitre plate transfection assay, Cos 1; format: cell-based, African Green Monkey; details: for relative transfection level (A linker compound as reference): "y" linker experiment c, Cos 1, trilysine trilaurate; for units β-gal: Table 2, Cos 1, highest reading of 72 conditions; for β-gal (Cos 1): Table 3, Cos 1, highest reading of 72 conditions
Description: as §1
Compounds were tested for their ability to transfect either the CAT or β-gal gene carried on plasmids, and assayed as described above.
as §2
Each of these compounds was tested for transfection ability and cytotoxicity on standard cell lines using standard conditions as described above.
as §3

[6] = tested on: Cos 1 cells; format: cell-based, African Green Monkey; remark: listed apart in the source
Protocol: Relative levels of cytotoxicity were also assayed in subsequent experiments using the dye MTS, marketed as Cell titre 96 Aqueous (Promega).
as §2, §3

Question: How did the “toxicity, linkers K, F and L compared” value [1] turn out when `CCCCCCCCCCCCCCCC(=O)OCC(CO)(COC(=O)CCCCCCCCCCCCCCC)NC(=O)[C@H](Cc1ccccc1)NC(=O)[C@H](CCCCN)NC(=O)[C@@H](N)CCCCN` [K2FTP2] was run?
Answer: somewhat higher than for the K compound

Question: For `CCCCCCCCCCCCCCCC(=O)OCC(COC(=O)CCCCCCCCCCCCCCC)(COC(=O)CCCCCCCCCCCCCCC)NC(=O)[C@H](CCCCN)NC(=O)[C@H](CCCCN)NC(=O)[C@@H](N)CCCCN` [K2KTP3], which “cytotoxicity, dipalmitate versus tripalmitate” value [1] is on record?
Answer: increase in cytotoxicity

Question: How did the “transfection efficiency compared to Lipofectamine” value [2] turn out when `CCCCCCCCCCCC(=O)OCC(COC(=O)CCCCCCCCCCC)(COC(=O)CCCCCCCCCCC)NC(=O)CCCCCNC(=O)[C@H](CCCCN)NC(=O)[C@H](CCCCN)NC(=O)[C@@H](N)CCCCN` [K3C5TL3] was run?
Answer: more efficient at transfection than Lipofectamine

Question: What about the “transfection efficiency compared to standard single amino acid linker” value [2] of the same compound?
Answer: dramatically more efficient than compounds using the standard single amino acid linker

Question: How did the “toxicity, linkers K, F and L compared” value [1] turn out when `CCCCCCCCCCCCCCCC(=O)OCC(CO)(COC(=O)CCCCCCCCCCCCCCC)NC(=O)[C@H](CC(C)C)NC(=O)[C@H](CCCCN)NC(=O)[C@@H](N)CCCCN` [K2LTP2] was run?
Answer: somewhat higher than for the K compound

Question: What about the “transfection, linkers K, F and L compared” value ([3]; "y" linker experiment a, Cos 1, dilysine dipalmitate) of the same compound?
Answer: marginally superior results to F, but was substantially more effective than the K compound

Question: What about the “transfection, linkers A and L compared” value ([3]; "y" linker experiment b, Cos 1) of the same compound?
Answer: very similar activities

Question: For `O=C1OC2(c3ccc(O)cc3Oc3cc(O)ccc32)c2ccccc21` [fluorescein, reference compound], which “cell staining after treatment” value ([4]; 10 μM) is on record?
Answer: only a very weak generalised fluorescence over the whole cell

Question: `CCCCCCCCCCCC(=O)OCC(COC(=O)CCCCCCCCCCC)(COC(=O)CCCCCCCCCCC)NC(=O)[C@H](CC(C)C)NC(=O)[C@H](CCCCN)NC(=O)[C@H](CCCCN)NC(=O)[C@@H](N)CCCCN` [K3LTL3] (H-KKKL-{NHC(CH2OLauroyl)3}) was tested. Which “relative transfection level (A linker compound as reference)” value [5] did it give?
Answer: 57%

Question: And the “transfection efficiency compared to Lipofectamine” value [2]?
Answer: more efficient at transfection than Lipofectamine

Question: “fluorescein alanine ethanolamine palmitate [FLAEP]” was tested. Which “cell staining after treatment” value ([4]; 10 μM) did it give?
Answer: intense cytoplasmic staining

Question: What about the persistence of staining [4] of the same compound?
Answer: This same persistence of staining was not observed

Question: And the “distribution in live, unfixed cells” value [4]?
Answer: appeared to enter the cell readily, but was concentrated particularly in the nucleus

Question: What does the source list for `CCCCCCCCCCCC(=O)OCC(CO)(COC(=O)CCCCCCCCCCC)NC(=O)[C@H](C)NC(=O)[C@H](CCCCN)NC(=O)[C@H](CCCCN)NC(=O)[C@@H](N)CCCCN` [K3ATL2] (H-KKKA-X4)?
Answer: ratio [lipid]/[DNA] at which maximum was achieved ([5]; Table 2, Cos 1): 0.69; units β-gal [5]: 1.06 × 10^-5 units; ratio [lipid]/[DNA] at which maximum was achieved ([5]; Table 3, Cos 1): .69; β-gal (Cos 1) [5]: 1.06 × 10^-5; MTS OD490-655 [6]: 1.554; Viability (Cos 1) [6]: 1.55

Question: Which “cell staining after treatment” value ([4]; 10 μM) does the source give for “fluorescein alanine Tris tripalmitate [FLATP3]” here?
Answer: intense cytoplasmic staining

Question: What about the localisation of conjugate ([4]; 10 μM, fixed cells) of the same compound?
Answer: appeared to associate preferentially with the cellular and nuclear membranes

Question: What about the persistence of staining [4] of the same compound?
Answer: a pattern that persisted in cells allowed to grow for 24 hours

Question: And the “distribution in live, unfixed cells” value [4]?
Answer: exhibited a similar pattern whether the cells were live or fixed

Question: `CCCCCCCCCCCC(=O)OCC(COC(=O)CCCCCCCCCCC)(COC(=O)CCCCCCCCCCC)NC(=O)CNC(=O)[C@H](CCCCN)NC(=O)[C@H](CCCCN)NC(=O)[C@@H](N)CCCCN` [K3GTL3] (H-KKKG-{NHC(CH2OLauroyl)3}) was tested. Which “relative transfection level (A linker compound as reference)” value [5] did it give?
Answer: 12%

Question: What about the “transfection efficiency compared to Lipofectamine” value [2] of the same compound?
Answer: All of the compounds except K3GTL3 were found to be more efficient at transfection than Lipofectamine

Question: Which results are given for `CCCCCCCCCCCC(=O)OCC(COC(=O)CCCCCCCCCCC)(COC(=O)CCCCCCCCCCC)NC(=O)CCCNC(=O)[C@H](CCCCN)NC(=O)[C@H](CCCCN)NC(=O)[C@@H](N)CCCCN` [K3C3TL3]?
Answer: transfection efficiency compared to Lipofectamine [2]: more efficient at transfection than Lipofectamine; transfection efficiency compared to standard single amino acid linker [2]: dramatically more efficient than compounds using the standard single amino acid linker

Question: How did the “ratio [lipid]/[DNA] at which maximum was achieved” value ([5]; Table 2, Cos 1) turn out when `CCCCCCCCCCCCCC(=O)OCC(CO)(COC(=O)CCCCCCCCCCCCC)NC(=O)[C@H](C)NC(=O)[C@H](CCCCN)NC(=O)[C@H](CCCCN)NC(=O)[C@@H](N)CCCCN` [K3ATM2] was run?
Answer: 0.35

Question: What about the “units β-gal” value [5] of the same compound?
Answer: 3.46 × 10^-5 units

Question: What about the “ratio [lipid]/[DNA] at which maximum was achieved” value ([5]; Table 3, Cos 1) of the same compound?
Answer: .35

Question: What about the “β-gal (Cos 1)” value [5] of the same compound?
Answer: 3.46 × 10^-5

Question: And the “MTS OD490-655” value [6]?
Answer: 1.56

Question: And the “Viability (Cos 1)” value [6]?
Answer: 1.56

From patent US5906922A, “Delivery of nucleic acids” (Commonwealth Scientific and Industrial Research Organisation, priority 1994, dated 1999)
